Drawing on patent publication US7468375B2 (Pfizer Inc., priority 2004, dated 2008), this text covers IC50 and EC50 for twelve compounds.

As a reminder, the IC50 is the midpoint of a concentration-inhibition curve. As usually defined, the EC50 is the concentration at which the effect is half-maximal.

Where two headings read alike, the source gives them in different places.

For assay [1], the target named is T1, Full-length wild type HIV-1 integrase (SF1) (Human immunodeficiency virus type 1 group M subtype B, UniProt P04585).
T1 construct: made in house; host or cells: E. coli BL21 (DE3)
The assay is described as follows: Integrase strand-transfer scintillation proximity assay. In kind it is biochemical. Particulars: strand transfer, 50 min at 37° C., 246 nM integrase, 50 nM host DNA; read-out: IC50. The method, boiled down: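 Recombinant full-length wild-type HIV-1 integrase (aa 1-288), E. coli-expressed, tested on biotinylated pre-processed U5 LTR viral ds-DNA with CA overhang bound to streptavidin SPA beads. [3H]-thymidine-labelled host ds-DNA serves as target; strand transfer read by scintillation proximity. A 3′ di-deoxy viral DNA control checks non-specific binding.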
On the technique in general: SPA uses beads or plates that emit light when radiolabelled molecules are held near them.

Assay [2] deals with RF strain of HIV-1 in CEM-SS cells. Description: HIV-1 cell protection assay (XTT dye reduction). The assay is classed as cell-based. An outline of the steps: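 CEM-SS cells infected with HIV-1 RF (moi 0.025–0.819) or mock-infected, 2×10^4 cells/well with half-log compound dilutions for six days. Viability by XTT/PMS reduction (4 h), absorbance 450 nm, as % of uninfected untreated cells. Therapeutic index = CC50/EC50.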

Setting [3] is: Human immunodeficiency virus 1, CEM-SS, 144 h, HIV-1 RF, CEM-SS cells, XTT dye reduction, six days, read-out: EC50.

On to `O=C(NO)c1cc2c(CNCc3ccccn3)cn(Cc3ccc(F)cc3F)c2cn1` [Example 55, 1-(2,4-Difluorobenzyl)-N-hydroxy-3-{[(pyridin-2-ylmethyl)amino]methyl}-1H-pyrrolo[2,3-c]pyridine-5-carboxamide], for which the IC50 in assay [1] was determined as 216 nM. Besides, the EC50 in assay [2] (setting [3]) is 20 nM.

For the compound `O=C(NO)c1cc2c(CNc3cccnc3)cn(Cc3ccc(F)cc3F)c2cn1` [Example 11, 1-(2,4-Difluorobenzyl)-N-hydroxy-3-[(pyridin-3-ylamino)methyl]-1 pyrrolo[2,3-c]pyridine-5-carboxamide], the IC50 in assay [1] was found to be 37 nM. In assay [2] (setting [3]), the EC50 is 15 nM.

On to `O=C(NO)c1cc2c(CNCc3ccc(C(F)(F)F)nc3)cn(Cc3ccc(F)cc3F)c2cn1` [Example 88, 1-(2,4-Difluorobenzyl)-N-hydroxy-3-[({[6-(trifluoromethyl)pyridin-3-yl]methyl}amino)methyl]-1H-pyrrolo[2,3-c]pyridine-5-carboxamide], for which, in assay [1], the IC50 was 238 nM. Besides, the EC50 in assay [2] (setting [3]) worked out at 16 nM.

For the compound `CN1CCC(NCc2cn(Cc3ccc(F)cc3F)c3cnc(C(=O)NO)cc23)CC1` [Example 89, 1-(2,4-Difluorobenzyl)-N-hydroxy-3-{[(1-methylpiperidin-4-yl)amino]methyl}-1H-pyrrolo[2,3-c]pyridine-5-carboxamide], the IC50 in assay [1] stood at 708 nM. Further, the EC50 in assay [2] (setting [3]) is 52 nM.

In the case of `O=C(NO)c1cc2c(CNCCO)cn(Cc3ccc(F)cc3F)c2cn1` [Example 80, 1-(2,4-Difluorobenzyl)-N-hydroxy-3-{[(2-hydroxyethyl)amino]methyl}-1H-pyrrolo[2,3-c]pyridine-5-carboxamide], in assay [1], the half-inhibitory concentration (IC50) stood at 530 nM. Moreover, the EC50 in assay [2] (HIV-1 RF, CEM-SS cells, XTT dye reduction, six days, read-out: EC50) is 10 nM.

On to `COCCOCc1cn(Cc2ccc(F)cc2)c2cnc(C(=O)NOC)cc12` [Example 109, 1-(4-Fluorobenzyl)-N-methoxy-3-[(2-methoxyethoxy)methyl]-1H-pyrrolo[2,3-c]pyridine-5-carboxamide], for which the IC50 in assay [1] worked out at 63 nM. Besides, in assay [2] (setting [3]), the EC50 turned out to be 313 nM.

Turning to `COCCOCc1cn(Cc2ccc(F)cc2F)c2cnc(C(=O)N(C)O)cc12` [Example 123, 1 (2,4-Difluorobenzyl)-N-hydroxy-3-[(2-methoxyethoxy)methyl]-N-methyl-1H-pyrrolo[2,3-c]pyridine-5-carboxamide], in assay [1], the IC50 turned out to be 51 nM. The same compound registered an EC50 in assay [2] (Human immunodeficiency virus 1, CEM-SS, 144 h) of 519 nM.

On to `CC(C)OCCCNCc1cn(Cc2ccc(F)cc2F)c2cnc(C(=O)NO)cc12` [Example 83, 1-(2,4-Difluorobenzyl)-N-hydroxy-3-H{[(3-isopropoxypropyl)amino]methyl}-1H-pyrrolo[2,3-c]pyridine-5-carboxamide], for which the IC50 in assay [1] was determined as 952 nM. Moreover, the EC50 in assay [2] (setting [3]) came out at 60 nM.

As for `COc1ncccc1NCc1cn(Cc2ccc(F)cc2F)c2cnc(C(=O)NO)cc12` [Example 90, 1-(2,4-Difluorobenzyl)-N-hydroxy-3—[(2-methoxypyridin-3-yl)amino-methyl]-1H-pyrrolo[2,3-c]pyridine-5-carboxamide], the IC50 in assay [1] amounted to 212 nM. Also, in assay [2] (setting [3]), the EC50 was 18 nM.

As for `CN(O)C(=O)c1cc2c(CN3CCOCC3)cn(Cc3ccc(F)cc3F)c2cn1` [Example 7, 1-(2,4-Difluorobenzyl)-A-hydroxy-N-methyl-3-(morpholin-4-ylmethyl)-1H-pyrrolo[2,3-c]pyridine-5-carboxamide], the IC50 in assay [1] worked out at 140 nM. The EC50 in assay [2] (setting [3]) turned out to be 21 nM.

Turning to `O=C(NO)c1cc2ccn(CCC3CCCCC3)c2cn1` [Example 26, 1-(2-Cyclohexylethyl)-N-hydroxy-1H-pyrrolo[2,3-c]pyridine-5-carboxamide], in assay [1], the IC50 came to 770 nM. The EC50 in assay [2] (setting [3]) turned out to be 3700 nM.

As to `CONC(=O)c1cc2ncn(Cc3ccc(F)cc3)c2cn1` [Example 22, 3-(4-Fluorobenzyl)-N-methoxy-3H-imidazo[4,5-c]pyridine-6-carboxamide], in assay [1], the IC50 is 1300 nM. Further, the EC50 in assay [2] (setting [3]) stood at 190 nM.
